Reference: patent publication US12565467B2, “Compounds, compositions, and methods for the treatment of inflammatory, degenerative, and neurodegenerative diseases” (Board of Supervisors of Louisiana State University and …, priority 2015, dated 2026)

Tests used:
[1] = test system: SIRT1; test: SIRT1 abundance in ARPE-19 cells under oxidative stress; format: cell-based; conditions: ARPE-19 / human RPE cells confronted with OS
Source text: FIG. 10. (A) Effect of NPD1 and VLC-PUFA C32:6 and C34:6 in mediating upregulation of SIRT1 in ARPE-19 cells. (B) Quantification of SIRT1 upregulation by NPD1, C32:6 and C34:6. SIRT1 (Sirtuin1) belongs to a family of highly conserved proteins linked to caloric restriction beneficial outcomes and aging by regulating energy metabolism, genomic stability and stress resistance. SIRT1 is a potential therapeutic target in several diseases including cancer, diabetes, inflammatory disorders, and neurodegenerative diseases or disorders. Elovanoids induce cell survival involving the upregulation of the Bcl2 class of survival proteins and the downregulation of pro-apoptotic Bad and Bax under oxidative stress (OS) in RPE cells. […] As a consequence, remarkable cell survival takes place. This target of elovanoids might be relevant to counteract consequences of several diseases associated with SIRT1.
FIG. 10—(A) Effect of NPD1 and VLC-PUFA C32:6 and C34:6 in mediating upregulation of SIRT1 in ARPE-19 cells. (B) Quantification of SIRT1 upregulation by NPD1, C32:6 and C34:6. SIRT1 (Sirtuin1) belongs to a family of highly conserved proteins linked to caloric restriction beneficial outcomes and aging by regulating energy metabolism, genomic stability and stress resistance. […]

[2] = test system: ARPE-19 cells; test: Oxidative stress induced apoptosis / cell death in ARPE-19 cells; format: cell-based, human; conditions: for concentration dependent cytoprotection (FIG. 5C): ARPE-19 under OS
Experimental: (§1) FIG. 5. (A) Effect of PD146176 on VLC-PUFA-inhibited apoptosis induced by OS in ARPE-19 cells. […] It is evident that 32:6 and 34:6 LCAF were able to induce a substantial amount (55 and 48% respectively) of neuroprotection compared to PD 146176 (22%) when the stressed cells were treated with 5 μm of 15-LOX-D1 inhibitor. It can be concluded that since PD146176 is the inhibitor of 15-lipooxygenase enzyme, it might be protecting the stressed RPE cells by accumulating neuroprotective agents inside the cells. (B) Comparison of cytoprotective capacities of NPD1, C32:6 and C34:6 VLC-PUFA on oxidative stress-induced apoptosis in 15-LOX-1 cells. Shown here is the comparison of neuroprotection in a 15-LOX-1-deficient cell line under oxidative stress with 32:6 and 34:6 VLC-PUFA along with NPD1. 32:6 and 34:6 LCAF were able to induce neuroprotection (45% and 40% respectively), as compared to oxidative stress (90%) under this condition. (C) Concentration dependent cytoprotection by C32:6 and C34:6 VLC-PUFA in oxidative-stress induced ARPE-19 cells. A concentration (50-500 nM) kinetic of cytoprotection induced by LCAF 32:6 and 34:6 in RPE cell culture under OS was shown here. […] We decided to use 250 nM concentrations of 32:6 and 34:6 LCAF in subsequent experiments. (D) Selected images of alive and dead cells from this study (control, OS, treatment with C32:6).
(§2) FIG. 5—(A) Effect of PD146176 on VLC-PUFA inhibited apoptosis induced by OS in ARPE-19 cells. […] It is evident that 32:6 and 34:6 LCAF were able to induce a substantial amount (55 and 48% respectively) of neuroprotection compared to PD 146176 (22%) when the stressed cells were treated with 5 μm of 15-LOX-D1 inhibitor. It can be concluded that since PD146176 is the inhibitor of 15-lipooxygenase enzyme, it might be protecting the stressed RPE cells by accumulating neuroprotective agents inside the cells. (B) Comparison of cytoprotective capacities of NPD1, C32:6 and C34:6 VLC-PUFA on oxidative stress-induced apoptosis in 15-LOX-1 cells. Shown here is the comparison of neuroprotection in a 15-LOX-1-deficient cell line under oxidative stress with 32:6 and 34:6 VLC-PUFA along with NPD1. 32:6 and 34:6 VLC-PUFA were able to induce neuroprotection (45% and 40% respectively), as compared to oxidative stress (90%) under this condition. (C) Concentration dependent cytoprotection by C32:6 and C34:6 VLC-PUFA in oxidative-stress induced ARPE-19 cells. A concentration (50-500 nM) kinetic of cytoprotection induced by VLC-PUFA 32:6 and 34:6 in RPE cell culture under OS was shown here. […] We decided to use 250 nM concentrations of 32:6 and 34:6 VLC-PUFA in subsequent experiments. (D) Selected images of alive and dead cells from this study (control, OS, treatment with C32:6).

[3] = test system: human retinal pigment epithelial (RPE) cells deficient in 15-LOX-D1; test: Oxidative stress (OS) induced apoptosis / cell death in 15-LOX-1-deficient human RPE cells; format: cell-based
Source text: (§3) FIG. 4. (A) Cytoprotective effects of NPD1 like compounds on OS induced apoptosis. The results shown in this figure compare the cytoprotective capacities of long chain polyunsaturated fatty acids (VLC-PUFA), elovanoids ELV1 and ELV2, and neuroprotectin D1 (NPD1) in human retinal pigment epithelial (RPE) cells deficient in 15-LOX-D1 by measuring the protection of cell deaths induced by oxidative stress (OS) by these compounds. […] (B) Elovanoid precursors protect human retinal pigment epithelial cells deficient in 15-LOX-1, unlike DHA, from oxidative stress conditions.
as §1
as §3, with “Evidence of cytoprotection by 32.6 and 34.6 VLC-PUFA in oxidative-stress induced ARPE-19 cells as detailed in (FIG. 4): (A) Cytoprotective” for “FIG. 4. (A) Cytoprotective”, “capacities of very long chain” for “capacities of long chain”
as §2, with “(D) Selected images of alive and dead cells from this study (control, OS, treatment with C32:6).” left out

[4] = test system: Bcl2; test: Bcl2 protein in RPE (LOX-D / ARPE-19) cells under oxidative stress; format: cell-based, human
Source text: FIG. 9. (A) VLC-PUFA and elovanoids ELV1 and ELV2 mediated effect on Bcl2 upregulation in ARPE-19 cells under stress. In this experiment we tested the effect of elovanoid precursors on Bcl2 upregulation along with VLC-PUFA in stressed RPE. (B) Quantification of Bcl2 upregulation by NPD1, ELV1 and ELV2 in LOX-D cells. Bcl2 is an important antiapoptotic protein of the Bcl2 family protein.
FIG. 9—(A) VLC-PUFA and elovanoids ELV1 and ELV2 mediated effect on Bcl2 upregulation in ARPE-19 cells under stress. In this experiment we tested the effect of elovaniod precursors on Blc2 upregulation along with VLC-PUFA in stressed RPE. (B) Quantification of Bcl2 upregulation by NPD1, ELV1 and ELV2 in LOX-D cells. Bcl2 is an important antiapoptotic protein of the Bcl2 family protein.

[5] = test system: Bax; test: Bax expression in LOX-D RPE cells under oxidative stress; format: cell-based, human
Experimental: (§4) FIG. 8. (A) Bcl-xL-upregulation by elovanoids ELV1 and ELV2 in ARPE-19 cells under stress. Bcl-xL is the antiapoptotic Bcl2 family protein. Like proapoptotic proteins Bid and Bim, the effect of elovaniod precursors on the antiapoptotic protein Bcl-xL was tested in this figure in RPE cells under OS. […] (B) Effect of NPD1, ELV1 and ELV2 on Bax expression in LOX-D cells under stress. Proapoptotic Bax was tested in this figure. […] C) VLC-PUFA and elovanoids ELV1 and ELV2 mediated effect on Bax upregulation in ARPE-19 cells under stress. In this experiment, elovanoid precursors along with VLC-PUFA were tested on the downregulation of the Bax protein in RPE cells under stress.
as §4, with “8—(A)” for “8. (A)”

[6] = test system: Bim; test: Bim protein in ARPE-19 cells under oxidative stress; format: cell-based, human; conditions: ARPE-19 cells under stress
Source text: (§5) FIG. 7. (A) VLC-PUFA and ELV1 and ELV2 compounds mediated downregulation of Bim in ARPE-19 cells under stress. Bim, another class of Bcl2 family, has been tested like Bid in this figure to confirm our previous results. VLC-PUFA and elovanoids protected against the upregulation of Bim by OS, similar to Bid, in RPE cells under stress. (B) VLC-PUFA and elovanoids mediated effect on Bim downregulation in ARPE-19 cells under stress.
as §5, with “7—A)” for “7. (A)”, “[…]” for “downregulation”, “protected” for “protected against”

[7] = test system: Bid; test: Bid protein by western blot in ARPE-19 cells under oxidative stress; format: cell-based, human
Source text: FIG. 6. (A) VLC-PUFA and elovanoids ELV1 and ELV2 mediated effect on Bid upregulation in ARPE-19 cells under stress. […] (B) VLC-PUFA and ELV1 and ELV2 compounds mediated upregulation of Bid in ARPE-19 cells under stress.
FIG. 6—(A) VLC-PUFA and elovanoids ELV1 and ELV2 mediated effect on Bid upregulation in ARPE-19 cells under stress. […] (B) VLC-PUFA and ELV1 and ELV2 compounds mediated upregulation of Bid in ARPE-19 cells under stress.

[8] = test system: Bcl-xL; test: Bcl-xL protein in ARPE-19 cells under oxidative stress; format: cell-based, human; conditions: ARPE-19 cells under OS
Experimental: as §4
as §4, with “8—(A)” for “8. (A)”

SMILES | effect on SIRT1 abundance (FIG. 10) [1] | concentration dependent cytoprotection (FIG. 5C) ([2]; 250 nM) | concentration dependent cytoprotection (FIG. 5C) ([2]; 500 nM) | protection against OS in RPE cells (summary, FIGS. 4-10) ([2]; RPE cells) | concentration dependent cytoprotection (FIG. 5C) ([2]; starting from 50 nM) | neuroprotection (FIG. 5A) ([2]; stressed ARPE-19 cells treated with 5 μm of 15-LOX-D1 inhibitor PD146176) | neuroprotection (FIG. 5B) ([3]; 15-LOX-1-deficient cell line under oxidative stress, compared to oxidative stress (90%)) | protection against cell death under oxidative stress conditions (FIG. 4B) ([3]; 15-LOX-D1 cells under oxidative stress) | effect on Bcl2 protein (FIG. 9) [4] | effect on Bax upregulation by OS (FIG. 8B) [5] | effect on Bim upregulation by OS (FIG. 7) [6] | effect on Bid protein upregulated by OS (FIG. 6) [7] | activity against OS relative to the related VLC-PUFA (FIG. 4) ([3]; as sodium salts or methyl esters) | effect on antiapoptotic Bcl-xL protein (FIG. 8A) [8]
CC/C=C\C/C=C\C/C=C\C/C=C\C/C=C\C/C=C\CCCCCCCCCCCCC(=O)O [C32:6] | mediate the upregulation of SIRT1 | very good intermediate effect | maximum effect | protective against OS | gradual decrease of cell deaths | 55% | 45% | protect against cell death |  |  |  |  |  | 
CC/C=C\C[C@H](O)\C=C/C=C/C=C/[C@H](O)C/C=C\C/C=C\CCCCCCCCCCCCC(=O)O [ELV1, (14Z,17Z,20R,21E,23E,25Z,27S,29Z)-20,27-dihydroxydotriaconta-14,17,21,23,25,29-hexaenoic acid] |  |  |  |  |  |  |  |  | potent upregulation | potent downregulation | potent downregulation | potent downregulation | more potent activity against OS than the related VLC-PUFA | potent upregulation
